Laboratory results reported in ChEMBL document CHEMBL1124377, “Potent and prolonged acting cyclic lactam analogues of alpha-melanotropin: design based on molecular dynamics” (J Med Chem, 1989).

Tests used:
[1] = tested on: Melanocyte-stimulating hormone receptor (Rana pipiens); test: […] potency against Rana pipiens using frog skin bioassay; effect did not continue after the removal of the compound
[2] = tested on: Melanocyte-stimulating hormone receptor (Anolis carolinensis); test: […] potency against Anolis carolinensis using lizard skin bioassay; effect did not continue after the removal of the compound

Relative potency [1]: 1
Relative potency [2]: 20
Compound: CCCC[C@H](NC(C)=O)C(=O)N[C@H]1CC(=O)NCCC[C@@H](C(N)=O)NC(=O)[C@H](Cc2c[nH]c3ccccc23)NC(=O)[C@H](CCCN=C(N)N)NC(=O)[C@@H](Cc2ccccc2)NC(=O)[C@H](Cc2cnc[nH]2)NC1=O
